Test results from patent publication US11202748B2, “Photoprotective compositions containing malassezia-derived compounds and/or chemical analogs thereof” (Versicolor Technologies, LLC, priority 2018, dated 2021).

Legend:
[1] = molecular target: arylhydrocarbon receptor (AhR) (Homo sapiens, UniProt P35869); details: expected result
Procedure: Cultivated cells are rinsed with 5 mL PBS. […] Trypsin is inactivated by adding excess serum-containing media.
Cells are resuspended in seeding media at a proper density.
Compound solutions are transferred into the assay plate using Echo550. The plate is then placed back into the incubator for compound treatment.
Afterward, stock solutions of test compounds, test compositions, and omeprazole positive control are prepared. Compound and compositions solutions are transferred into the assay plate using Echo550. The plate is then placed back into the incubator for compound/composition treatment.

[2] = test system: MeWo, WM115 and B16F1 cell lines; details: expected result
Procedure: The cell lines MeWo (ATCC® HTB-65™), WM115 (ATCC® CRL-1675) and B16F1 (ATCC® CRL-6323) are maintained in the following culture media: culture medium for MeWo and B16F1: DMEM supplemented with 10% FBS; culture medium for WM115: RPMI 1640 supplemented with 10% FBS.
Cells are harvested and the cell number determined using a Countess Cell Counter. The cells are diluted with culture medium to the desired density. The final cell density may be, for example, 4,000 cells/well for 6 hr and 24 hr treatment, and 2,000 cells/well for 48 hr and 72 hr treatment. For the Annexin V assay, 384-well clear-bottom plates (Corning 3712) are employed, whereas 384-well solid white-bottom plates (Corning 3570) are used for the Caspase-Glo assays. All plates are covered with a lid and placed at 37° C. and 5% CO2 overnight for cell attachment.
Test compounds are dissolved in DMSO to 30 mM stock. 10-fold dilutions are performed to generate 3 mM and 0.3 mM concentrations. […]
For the Annexin V assay, plates are removed from the incubator and culture media is removed. […] Plates are read using ImageXpress Nano.
For the Caspase-Glo assay, plates are removed from the incubator and equilibrated at room temperature for 15 minutes. […] Plates are incubated at room temperature for 15 minutes and read using EnSpire™ plate reader. Fold induction is calculated according to the following formula: Fold induction=LumSample/LumNC.

[3] = expected result
Procedure: For the CellTiter-Glo assay, test compounds are prepared in 10 mM DMSO solution. Compounds are serially diluted into 12 concentrations. 40 uL of cells from a 100,000 cell/mL suspension are dispensed into each well of a 384-well plate (Corning 3570). Plates are incubated overnight at 37° C., 5% CO2, and 95% humidity. Test compounds are added, with DMSO as vehicle control. Plates are incubated at 37° C., 5% CO2, and 95% humidity for 6, 24, or 48 hours, and 40 uL of CellTiter-Glo reagent is added to the wells to assess cell viability.

[4] = test system: B16 melanocytes; details: expected result
Procedure: Plating media will include DMEM without L-glutamine, FBS, penicillin/streptomycin, and L-glutamine. Assay media will include DMEM without phenol red and L-glutamine, FBS, penicillin/streptomycin, L-glutamine, and aMSH. Other reagents will include Kojic Acid, DMSO, and MTT. Cells tested will be B16 cells (ATCC CRL-6475).
B16 Melanocytes are cultured until 70% confluent and harvested. Cells are seeded in 96-well plates at a density of 4000 cells/well and are allowed to attach overnight. The following day, test articles and controls are diluted in B16 Assay media. Overnight media is aspirated and 200 ul of test articles and controls are applied. Cells are incubated at 37° C. and 10% CO2 for 72 hours. Following 72-hour incubation, absorbance is read at 540 nm. Media is removed and replaced with 100 ul of plating media containing 1 mg/mL MTT and incubated for 2 hours at 37° C. and 10% CO2. MTT media is removed and replaced with 200 ul of 95% Ethanol/5% Isopropanol and allowed to shake for 15 minutes. MTT absorbance then is read at 570 nm.
B16 Melanocytes are cultured until 70% confluent and harvested. Cells are seeded in 96-well plates at a density of 4000 cells/well and are allowed to attach overnight. The following day, test articles, test compositions, and controls are diluted in B16 Assay media. […] Following 72-hour incubation, absorbance is read at 540 nm. […] MTT absorbance then is read at 570 nm.

[5] = test system: arylhydrocarbon receptor (AhR); details: cited from earlier work

Chain of arylhydrocarbon receptor (AhR) (Homo sapiens, UniProt P35869) (P35869 11-848): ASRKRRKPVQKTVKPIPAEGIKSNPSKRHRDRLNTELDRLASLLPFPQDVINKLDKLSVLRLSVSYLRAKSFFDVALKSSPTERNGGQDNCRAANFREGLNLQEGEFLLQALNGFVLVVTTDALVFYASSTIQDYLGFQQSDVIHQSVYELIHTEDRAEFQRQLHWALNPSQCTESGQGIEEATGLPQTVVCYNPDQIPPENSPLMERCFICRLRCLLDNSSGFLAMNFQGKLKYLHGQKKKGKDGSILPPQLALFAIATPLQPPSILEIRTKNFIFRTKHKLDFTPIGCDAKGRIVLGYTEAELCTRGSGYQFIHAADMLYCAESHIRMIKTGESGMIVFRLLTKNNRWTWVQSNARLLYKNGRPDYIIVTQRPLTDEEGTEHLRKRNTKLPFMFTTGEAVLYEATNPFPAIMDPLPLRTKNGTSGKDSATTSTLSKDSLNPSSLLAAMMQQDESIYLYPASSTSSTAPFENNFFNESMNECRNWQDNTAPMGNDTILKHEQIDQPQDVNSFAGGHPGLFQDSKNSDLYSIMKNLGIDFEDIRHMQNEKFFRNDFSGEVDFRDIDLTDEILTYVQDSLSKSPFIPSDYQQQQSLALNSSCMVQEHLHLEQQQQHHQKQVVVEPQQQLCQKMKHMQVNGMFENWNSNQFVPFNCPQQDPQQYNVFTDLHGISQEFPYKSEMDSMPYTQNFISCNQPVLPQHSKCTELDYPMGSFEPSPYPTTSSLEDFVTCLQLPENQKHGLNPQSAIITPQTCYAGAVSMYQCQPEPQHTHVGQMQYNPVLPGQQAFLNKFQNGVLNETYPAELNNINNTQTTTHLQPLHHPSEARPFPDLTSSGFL

SMILES	AhR activity modulation [1]	cell death / apoptosis induction [2]	cell death (cell viability) [3]	melanogenesis inhibition [4]	AhR agonist activity [5]
O=C1Nc2ccccc2/C1=C1/Nc2ccccc2C1=O [Indirubin]	will modulate AhR activity	will induce cell death	will induce cell death	will inhibit melanogenesis	known agonist
O=Cc1c(Cc2c[nH]c3ccccc23)[nH]c2ccccc12 [Malassezin, 2-(1H-indol-3-ylmethyl)-1H-indole-3-carbaldehyde]					known agonist
